The experiment has as its target hNav1.7 (Homo sapiens (Human), UniProt Q15858). In words: Tritiated aryl sulfonamide binding to membranes from cells expressing hNav1.7 and the β1 subunit (competitive binding). As to conditions: read-out: NaV1.7 395 Memb Binding (IC50). The procedure: Tritiated Aryl Sulfonamide Binding to Membranes Isolated from Cells that Heterologously Express hNav1.7 and the β1 Subunit
Preparation of membranes containing recombinantly expressed sodium channels: Frozen recombinant cell pellets were thawed on ice and diluted to 4 times the cell pellet weight with ice cold 50 mM Tris HCl, pH 7.4 buffer. The cell suspensions were homogenized on ice using a motorized glass dounce homogeniser. Homogenates were further diluted 8.4 times with ice cold 50 mM Tris HCl, pH 7.4 buffer and then centrifuged at 200×g at 4° C. for 15 min. The supernatants were collected and centrifuged at 10000×g at 4° C. for 50 min. The pellets were then re-suspended in 100 mM NaCl, 20 mM Tris HCl, pH 7.4 buffer containing 1% v/v protease inhibitors (Calbiochem) and re-homogenized on ice. The homogenized membranes were then processed through a syringe equipped with a 26 gauge needle. Protein concentrations were determined by Bradford Assay and the membranes were stored at −80° C.
Radioligand Binding Studies: Saturation experiments. A representative compound of formula (I) was tritiated. Three tritiums were incorporated in place of methyl hydrogens to generate [^3H]compound. Binding of this radioligand was preformed in 5 mL borosilicate glass test tubes at room temperature. Binding was initiated by adding membranes to increasing concentrations of [^3H]compound in 100 mM NaCl, 20 mM Tris HCl, pH 7.4 buffer containing 0.01% w/v bovine serum albumin (BSA) for 18 h. Non-specific binding was determined in the presence of 1 μM unlabelled compound. After 18 h, the reactants were filtered through GF/C glass fiber filters presoaked in 0.5% w/v polyethylene imine. […] [^3H]compound bound to filters was quantified by liquid scintillation counting.
Competitive binding experiments. Binding reactions were preformed in 96-well polypropylene plates at room temperature for 18 h. In 360 μL, membranes were incubated with 100 μM [^3H]compound and increasing concentrations of Test Compound. Non-specific binding was defined in the presence of 1 μM unlabelled compound. Reactions were transferred and filtered through 96-well glass fiber/C filter plates presoaked with 0.5% polyethylene imine. The filtered reactions were washed 5 times with 200 L ice cold buffer containing 0.25% BSA. Bound radioactivity was determined by liquid scintillation counting.
Data Analysis: For saturation experiments, non-specific binding was subtracted from total binding to provide specific binding and these values were recalculated in terms of pmol ligand bound per mg protein. Saturation curves were constructed and dissociation constants were calculated using the single site ligand binding model: Beq=(Bmax*X)/(X+Kd), where Beq is the amount of ligand bound at equilibrium, Bmax is the maximum receptor density, Kd is the dissociation constant for the ligand, and X is the free ligand concentration.

Setting [1] is: membranes with hNav1.7 and β1 subunit, [3H]compound displacement, 18 h, room temperature.

Like-named read-outs stand apart in the source and are kept apart here.

By IC50 is commonly meant the concentration at which inhibition is half-maximal.

hNav1.7, sequence (Q15858 whole entry, looked up): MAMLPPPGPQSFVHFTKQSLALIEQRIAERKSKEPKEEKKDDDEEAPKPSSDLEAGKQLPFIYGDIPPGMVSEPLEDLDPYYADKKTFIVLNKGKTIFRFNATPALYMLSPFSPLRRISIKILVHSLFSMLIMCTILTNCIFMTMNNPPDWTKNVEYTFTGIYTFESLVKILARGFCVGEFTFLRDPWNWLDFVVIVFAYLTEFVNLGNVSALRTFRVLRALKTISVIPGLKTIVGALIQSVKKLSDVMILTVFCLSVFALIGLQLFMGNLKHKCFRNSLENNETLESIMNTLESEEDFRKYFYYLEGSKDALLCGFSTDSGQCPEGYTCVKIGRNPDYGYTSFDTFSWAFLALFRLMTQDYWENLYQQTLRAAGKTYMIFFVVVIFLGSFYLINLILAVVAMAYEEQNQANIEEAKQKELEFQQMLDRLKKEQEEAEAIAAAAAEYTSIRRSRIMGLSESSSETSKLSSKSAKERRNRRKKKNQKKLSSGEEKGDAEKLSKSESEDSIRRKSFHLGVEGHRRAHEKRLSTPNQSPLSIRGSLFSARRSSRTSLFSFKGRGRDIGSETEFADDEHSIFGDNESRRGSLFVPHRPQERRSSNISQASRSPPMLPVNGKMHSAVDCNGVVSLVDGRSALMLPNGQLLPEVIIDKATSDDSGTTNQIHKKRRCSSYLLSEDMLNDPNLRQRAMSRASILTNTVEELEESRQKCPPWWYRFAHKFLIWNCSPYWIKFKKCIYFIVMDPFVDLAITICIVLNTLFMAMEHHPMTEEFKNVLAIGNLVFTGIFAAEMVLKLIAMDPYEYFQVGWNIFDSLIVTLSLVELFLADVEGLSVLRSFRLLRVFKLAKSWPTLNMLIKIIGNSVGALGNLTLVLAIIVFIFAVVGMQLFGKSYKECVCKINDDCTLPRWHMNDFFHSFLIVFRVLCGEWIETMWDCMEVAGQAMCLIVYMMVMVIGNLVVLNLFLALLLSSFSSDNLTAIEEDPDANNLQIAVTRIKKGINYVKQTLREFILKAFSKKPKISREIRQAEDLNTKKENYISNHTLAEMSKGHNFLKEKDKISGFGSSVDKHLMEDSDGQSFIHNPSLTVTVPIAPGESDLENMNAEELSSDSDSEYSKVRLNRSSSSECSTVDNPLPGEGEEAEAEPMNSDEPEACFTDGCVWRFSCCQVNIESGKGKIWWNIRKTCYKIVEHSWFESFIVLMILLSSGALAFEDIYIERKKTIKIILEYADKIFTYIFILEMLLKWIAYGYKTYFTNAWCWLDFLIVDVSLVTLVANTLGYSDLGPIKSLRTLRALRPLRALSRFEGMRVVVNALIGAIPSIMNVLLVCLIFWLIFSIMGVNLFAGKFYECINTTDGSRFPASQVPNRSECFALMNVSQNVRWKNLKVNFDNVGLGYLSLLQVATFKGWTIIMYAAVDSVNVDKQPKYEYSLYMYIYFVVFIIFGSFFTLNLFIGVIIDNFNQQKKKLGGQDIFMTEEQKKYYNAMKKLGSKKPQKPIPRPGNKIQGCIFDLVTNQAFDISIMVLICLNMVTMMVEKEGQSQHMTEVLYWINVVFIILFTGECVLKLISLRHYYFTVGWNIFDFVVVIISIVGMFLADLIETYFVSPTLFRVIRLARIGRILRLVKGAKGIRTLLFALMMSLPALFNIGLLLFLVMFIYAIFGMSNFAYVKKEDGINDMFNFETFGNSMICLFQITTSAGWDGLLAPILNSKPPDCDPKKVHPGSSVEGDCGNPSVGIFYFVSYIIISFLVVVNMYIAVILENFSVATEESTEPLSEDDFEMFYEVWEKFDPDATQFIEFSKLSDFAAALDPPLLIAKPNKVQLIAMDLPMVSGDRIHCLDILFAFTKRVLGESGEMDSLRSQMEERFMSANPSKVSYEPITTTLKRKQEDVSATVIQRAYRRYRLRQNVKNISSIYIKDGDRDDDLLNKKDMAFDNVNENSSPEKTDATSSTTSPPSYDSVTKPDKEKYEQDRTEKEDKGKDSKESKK
hNav1.7, sequence (Q07699 whole entry partner, looked up): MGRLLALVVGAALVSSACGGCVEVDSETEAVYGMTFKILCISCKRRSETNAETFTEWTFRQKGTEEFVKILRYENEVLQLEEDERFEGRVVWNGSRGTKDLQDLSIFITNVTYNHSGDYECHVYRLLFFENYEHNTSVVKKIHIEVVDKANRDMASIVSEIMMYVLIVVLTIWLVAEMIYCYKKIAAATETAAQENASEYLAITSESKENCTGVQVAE

Turning to `CC(C)(C)OC(=O)N1CCCC(COc2cc(F)c(C(=O)NS(C)(=O)=O)cc2F)C1` (stereo not shown), under setting [1], the IC50 worked out at 9990 nM. Still for that read-out and setting: the result for `CS(=O)(=O)NC(=O)c1cc(Cl)c(OCC23CC4CC(CC(F)(C4)C2)C3)cc1F` reads 120 nM.

Regarding `CS(=O)(=O)NC(=O)c1ccc(C(O)C2C3CC4CC(C3)CC2C4)c(Cl)c1` (stereo not shown), the IC50 is 1200 nM. On to `CS(=O)(=O)NC(=O)c1cc(F)c(OCCC2CC2)cc1F`, for which, under setting [1], the IC50 was 6860 nM. Still for that read-out and setting: the result for `CS(=O)(=O)NC(=O)c1ccc(OCCC23CC4CC(CC(C4)C2)C3)c(Cl)c1` reads 90 nM; that for `CNS(=O)(=O)NC(=O)c1cc(C2CC2)c(OCC2(C#N)C3CC4CC(C3)CC2C4)cc1F` (stereo not shown), 43 nM.

Take `CS(=O)(=O)NC(=O)c1cc(Cl)c(Oc2ccc3c(c2)CCCC3)cc1F`: the IC50 under setting [1] was 190 nM. Still for that read-out and setting: for `CC(=O)c1cc(C(=O)NS(=O)(=O)N2CCC2)c(F)cc1OCC12CC3CC(CC(C3)C1)C2` the value was 60 nM. The same measure, in the same setting: for `O=C(NS(=O)(=O)N1CCC2(CC1)COC2)c1cc(C2CC2)c(OCC23CC4CC(CC(C4)C2)C3)cc1F` the value was 630 nM.

Turning to `COCCS(=O)(=O)NC(=O)c1cc(C2CC2)c(OCC2(C(F)(F)F)CCCCC2)cc1F`, the IC50 under setting [1] was 30 nM. Same read-out and setting: for `O=C(NS(=O)(=O)N1CCC1)c1cc(C2CC2)c(OCC2CCCC2)cc1F` the value was 36 nM; for `O=C(NS(=O)(=O)N1CCC1)c1cc(C2CC2)c(OCC23CC4CC(CC(CO)(C4)C2)C3)cc1F`, 80 nM. The same measure, in the same setting: the result for `O=C(NS(=O)(=O)N1CCC1)c1cc(Cl)c(OCC2(C(F)(F)F)CCCC2)cc1F` reads 30 nM; that for `CC1(COc2cc(F)c(C(=O)NS(=O)(=O)N3CCC3)cc2C2CC2)CCCCC1`, 3 nM. For the compound `O=C(NS(=O)(=O)N1CCC1)c1cc(C2CC2)c(OCC23CC4CC(C2)CC(OC(=O)C(F)(F)F)(C4)C3)cc1F`, the IC50 under setting [1] stood at 35 nM. Same read-out and setting: the result for `CNS(=O)(=O)NC(=O)c1cc(C2CC2)c(OCC2(C(F)(F)F)CCCCC2)cc1F` reads 20 nM; that for `CNS(=O)(=O)NC(=O)c1cc(C2CC2)c(OCC2CCC(F)(F)CC2)cc1F`, 130 nM; that for `CC1(COc2cc(F)c(C(=O)NS(C)(=O)=O)cc2C2CC2)CCC(F)(F)CC1`, 18 nM. Consider `CC(C)(F)c1cc(C(=O)NS(=O)(=O)N2CCC2)c(F)cc1OCC12CC3CC(CC(C3)C1)C2`, for which the IC50 under setting [1] was found to be 36 nM. The same measure, in the same setting: for `O=C(NS(=O)(=O)C1CC1)c1cc(C2CC2)c(OCC2CC3CC3C2)cc1F` (stereo not shown) the value was 11 nM; for `O=C(NS(=O)(=O)N1CC2(CCO2)C1)c1cc(C2CC2)c(OCC23CC4CC(CC(C4)C2)C3)cc1F`, 40 nM. On the same count and under the same terms, for `[2H]C1([2H])C([2H])([2H])C([2H])([2H])C([2H])(COc2cc(F)c(C(=O)NS(C)(=O)=O)cc2Cl)C([2H])([2H])C1([2H])[2H]` the value was 210 nM. Same read-out and setting: the result for `CS(=O)(=O)NC(=O)c1cc(Cl)c(C(=O)NC23CC4CC(CC(C4)C2)C3)cc1F` reads 10000 nM; that for `CC1(C)C(COc2cc(F)c(C(=O)NS(C)(=O)=O)cc2Cl)C1(C)C` [listing 1 of 2 here], 10000 nM; that for `CS(=O)(=O)NC(=O)c1cc(F)c(OCC2CCCNC2)cc1F` (stereo not shown), 10000 nM. With `CS(=O)(=O)NC(=O)c1cc(Cl)c(OCC2CCCCC2)cc1F`, under setting [1], the IC50 was found to be 140 nM. Still for that read-out and setting: the result for `CS(=O)(=O)NC(=O)c1cc(Cl)c(OCCC2CCCC2)cc1F` reads 140 nM; that for `O=C(NS(=O)(=O)N1CCC1)c1cc(Cl)c(OCC2CC3C(C2)C3(F)F)cc1F` (stereo not shown), 200 nM.

Turning to `CN(C)S(=O)(=O)NC(=O)c1cc(Cl)c(OC2C3CC4CC(C3)CC2C4)cc1F` (stereo not shown), under setting [1], the IC50 is 190 nM. The same measure, in the same setting: for `COC12CC3CC(CC(COc4cc(F)c(C(=O)NS(C)(=O)=O)cc4Cl)(C3)C1)C2` the value was 603 nM. Turning to `CS(=O)(=O)NC(=O)c1cc(F)c(OCC2CCCO2)cc1F` (stereo not shown), the IC50 is 10000 nM. On to `CS(=O)(=O)NC(=O)c1cc(C2CC2)c(COC2C3CC4CC(C3)CC2C4)cc1F` (stereo not shown), for which the IC50 under setting [1] was determined as 5 nM. On the same count and under the same terms, for `CS(=O)(=O)NC(=O)c1ccc(OCC23CC4CC(CC(C4)C2)C3)c(C2CCC2)c1` the value was 9 nM; for `CS(=O)(=O)NC(=O)c1cc(Cl)c(COC2C3CC4CC(C3)CC2C4)cc1F` (stereo not shown), 6 nM. Turning to `CC1(C)[C@@H]2CC[C@@H](COc3cc(F)c(C(=O)NS(C)(=O)=O)cc3Cl)[C@H]1C2`, the IC50 under setting [1] was 58 nM. On to `CNS(=O)(=O)NC(=O)c1cc(Cl)c(COc2ccc3c(c2)CC(C)(C)CC3)cc1F`, for which the IC50 under setting [1] was 26 nM. Still for that read-out and setting: for `CNS(=O)(=O)NC(=O)c1cc(Cl)c(COc2ccc3c(c2)CCC(C)(C)C3)cc1F` the value was 65 nM; for `CNS(=O)(=O)NC(=O)c1cc(C2CC2)c(OCC23CC4CC(CC(C4)C2)C3)cc1F`, 2.1 nM.

With `CNS(=O)(=O)NC(=O)c1cc(Cl)c(COc2ccc3c(c2)CCC(C)(C)O3)cc1F`, the IC50 under setting [1] came out at 170 nM. For `CNS(=O)(=O)NC(=O)c1cc(Cl)c(COc2ccc3c(c2)OC(C)(C)CC3)cc1F`, the IC50 under setting [1] came to 180 nM. With `O=C(NS(=O)(=O)CCO)c1cc(Cl)c(OCC23CC4CC(CC(C4)C2)C3)cc1F`, the IC50 under setting [1] was 130 nM. The same measure, in the same setting: for `CNS(=O)(=O)NC(=O)c1cc(Cl)c(OCC23CC4CC(CC(C4)C2)C3)cc1F` the value was 97 nM; for `O=C(NS(=O)(=O)N1CCC1)c1cc(Cl)c(OCC23CC4CC(CC(C4)C2)C3)cc1F`, 21 nM; for `O=C(NS(=O)(=O)c1c[nH]cn1)c1cc(Cl)c(OCC23CC4CC(CC(C4)C2)C3)cc1F`, 190 nM.

For `O=C(NS(=O)(=O)N1CCOCC1)c1cc(Cl)c(OCC23CC4CC(CC(C4)C2)C3)cc1F`, under setting [1], the IC50 stood at 55 nM. Same read-out and setting: for `Cc1nnn(C23CC4CC(CC(COc5cc(F)c(C(=O)NS(C)(=O)=O)cc5Cl)(C4)C2)C3)n1` the value was 770 nM; for `CN(C)S(=O)(=O)NC(=O)c1cc(Cl)c(COc2ccc3c(c2)OC(C)(C)CC3)cc1F`, 190 nM. As to `CN(C)S(=O)(=O)NC(=O)c1cc(Cl)c(COc2ccc3c(c2)CCC(C)(C)C3)cc1F`, the concentration for half-maximal inhibition (IC50) under setting [1] was 86 nM. On the same count and under the same terms, the result for `CCCCCC12CCC(COc3cc(F)c(C(=O)NS(=O)(=O)N(C)C)cc3Cl)(CC1)CC2` reads 33 nM. Still for that read-out and setting: for `CN(C)S(=O)(=O)NC(=O)c1cc(Cl)c(OCC2(F)CCCCC2)cc1F` the value was 1680 nM; for `CS(=O)(=O)NC(=O)c1cc(Cl)c(OCC2(C(F)(F)F)CCC2)cc1F`, 122 nM.

On to `CN(C)S(=O)(=O)NC(=O)c1cc(Cl)c(COc2ccc3c(c2)CC(C)(C)CC3)cc1F`, for which the IC50 under setting [1] was 106 nM. On the same count and under the same terms, for `CN(C)S(=O)(=O)NC(=O)c1ccc(OCC23CC4CC(CC(C4)C2)C3)c(C2CC2)c1` the value was 16.2 nM.

Turning to `CS(=O)(=O)NC(=O)c1cc(Cl)c(COC23CC4CC(CC(C4)C2)C3)cc1F`, the IC50 under setting [1] was determined as 16 nM. The same measure, in the same setting: for `CN(C)S(=O)(=O)NC(=O)c1cc(Cl)c(OCC2CCC3(CCC3)CC2)cc1F` the value was 81 nM; for `CC1(C)C(COc2cc(F)c(C(=O)NS(C)(=O)=O)cc2Cl)C1(C)C` [listing 2 of 2 here], 94 nM.

Turning to `CS(=O)(=O)NC(=O)c1cc(Cl)c(OC[C@H]2CC[C@@H](C(F)(F)F)CC2)cc1F`, the IC50 under setting [1] stood at 86 nM. Take “4-((1-((4-chlorophenyl)(phenyl)methyl)azetidin-3-yl)-methoxy)-5-cyclopropyl-2-fluoro-N-(methylsulfonyl)benzamide [Example 398]”: the IC50 came to 6 nM. On to “5-chloro-4-((4,4-difluorocyclohexyl)methoxy)-2-fluoro-N-(methylsulfonyl)benzamide [Example 42]”, for which the IC50 under setting [1] came to 44 nM.

For the compound “5-chloro-N—(N,N-dimethylsulfamoyl)-2-fluoro-4-((4-pentylbicyclo[2.2.2]octan-1-yl)-methoxy)benzamide [Example 91]”, the IC50 under setting [1] is 1210 nM. For the compound “5-cyclopropyl-4-((4,4-difluorocyclohexyl)methoxy)-2-fluoro-N-((3-fluoroazetidin-1-yl)sulfonyl)benzamide [Example 212]”, the IC50 under setting [1] is 2300 nM. Consider “5-cyclopropyl-4-((4,4-difluorocyclohexyl)methoxy)-2-fluoro-N-(N-methylsulfamoyl)benzamide [Example 214]”, for which the IC50 worked out at 900 nM. For `COC(=O)C12CC3CC(C1)C(Oc1cc(F)c(C(=O)NS(C)(=O)=O)cc1Cl)C(C3)C2` (single isomer, unassigned) [Example 450], the IC50 under setting [1] amounted to 1200 nM. On the same count and under the same terms, the result for `COC(=O)C12CC3CC(C1)C(Oc1cc(F)c(C(=O)NS(C)(=O)=O)cc1Cl)C(C3)C2` (single isomer, unassigned) [Example 451] reads 270 nM.

The record behind these values is patent US8952169B2 (Genentech, Inc., priority 2012, dated 2015).
